Data as given in patent publication US20070259094A1, “N-acetylglucosamine as a food and beverage additive” (priority 2002, published 2007).
Read-outs that look alike come from different tables or passages of the source.

How the values were obtained:
pH of aqueous solution = type: physicochemical; conditions: for pH of solution: 2 grams in 180 mL of water
Description: Two grams of glucosamine sulphate in 180 mL of water gives a solution with a pH of 6.06 and glucosamine hydrochloride gives a solution with a pH of 6.07.
A solution of 2 grams of N-acetylglucosamine in 180 mL of water has a pH of 7.40.

[1] = Bran muffin baking behaviour at 400° F. (204° C.); type: physicochemical; conditions: bran muffins baked at 204° C.
Description: Measure out 4 times 415 mL dry muffin mix (sufficient to make 6 muffins each) to make up the following formulae
Add to each dry mix 160 mL of water and ¼ of egg mixture and mix thoroughly.
Pour equal amounts into 6 muffin cups for each of the formulae.
Preheat oven to 400° F. or 204° C., bake each formula separately and observing cooking behaviour.

osteoarthritis (knee) = conditions: 4-week course, cited from earlier work; for symptoms of osteoarthritis: glucosamine sulphate 1,500 mg, ibuprofen 1,200 mg
[2] = tested on: primary knee osteoarthritis; conditions: cited from earlier work
[3] = tested on: osteoarthritis of the temporomandibular joint; conditions: cited from earlier work; for patients improved (positive clinical response = 20% decrease TMJ pain with function): GS 500 mg tid, ibuprofen 400 mg tid, p=0.73 between groups; for number of patients improved (positive clinical response): of 21 GS and 18 ibuprofen completers
[4] = cited from earlier work; for half-life: doses as high as 20 grams per human subject; for adverse events: five subjects
[5] = tested on: IL-1β-induced NO production in normal human articular chondrocytes; conditions: cited from earlier work; for effect on IL-1β-induced NO production: normal human articular chondrocytes; for Inhibitory Activity on IL-1β induced NO Production: table of various sugars
intestinal mucosa [6] = conditions: cited from earlier work
Inducible NO Synthetase = conditions: cited from earlier work; for inhibiting the production of nitric oxide synthetase: human chondrocytes stimulated with IL-1
COX-2 = conditions: cited from earlier work; for inhibiting the production of COX-2: human chondrocytes stimulated with IL-1
IL-6 = conditions: cited from earlier work; for inhibiting the production of IL-6: human chondrocytes stimulated with IL-1
[7] = cited from earlier work; for absolute bioavailability: compared with IV at 100%
[8] = cited from earlier work
intestinal mucosa [9] = assay: Incorporation of glucosamine and N-acetylglucosamine into glycoproteins of intestinal mucosa in vitro; type: cell-based, human; conditions: normal subjects, on average
Description: Inflammatory conditions can also interfere with the incorporation of glucosamine into glycosaminoglycans. Intestinal mucosal from patients with ulcerative colitis and Crohn's disease and from patients without inflammatory disease were studied in vitro. N-acetylglucosamine is preferentially incorporated into glycoproteins over glucosamine. In normal subjects—ratio ranges were from 0.04 to 0.26 with a mean 0.097. Thus on average 10 times more N-acetylglucosamine is incorporated into macromolecules than glucosamine. In IBD the mean ratio of incorporation of glucosamine to N-acetylglucosamine is 0.039 for Crohn's and 0.031 for ulcerative colitis. In other words, 25 to 32 times more N-acetylglucosamine was incorporated into macromolecules compared to glucosamine (2).

COX-1 = conditions: constitutively expressed, human chondrocytes; cited from earlier work
[10] = tested on: severe treatment-resistant inflammatory bowel disease; conditions: cited from earlier work
[11] = number of patients of 106, three years
[12] = IL-1β-stimulated human chondrocytes
[13] = rectal administration as sole therapy

SMILES: N[C@H]1C(O)O[C@H](CO)[C@@H](O)[C@@H]1O.O=S(=O)(O)O (stereo partly drawn) [Glucosamine Sulphate]
- pH (1% in water) (pH of aqueous solution): 6.06
- pH of solution (pH of aqueous solution): 6.06
- stability in the baking process [1]: break down in the baking process
- patients dropped out because of adverse events / side effects (osteoarthritis (knee)): None
- symptoms of osteoarthritis (osteoarthritis (knee)): reduced symptoms
- significant joint space narrowing ([2]; 1.5 grams per day, three years, versus placebo, p<0.05): did not
- fasting plasma glucose concentrations ([2]; during the study): decreasing slightly
- Withdrawal from Study Due to Adverse Events [2, 11]: 21
- Withdrawal from Study, Lack of Efficacy [2, 11]: 3
- incidence and type of adverse events versus placebo ([2]; three-year period): not different between the two groups
- routine laboratory tests (system organs, metabolic functions) ([2]; three-year period): did not show any abnormalities
- patients improved (positive clinical response = 20% decrease TMJ pain with function) ([3]; 90 days): 71%
- patients discontinued due to dizziness ([3]; 90 days): one
- patients discontinued due to stomach upset ([3]; 90 days): one
- decrease in TMJ pain with function and acetaminophen use, between-group comparison ([3]; between Day 90 and 120, compared with ibuprofen): significantly greater decrease
- number of patients improved (positive clinical response) [3]: Fifteen

SMILES: Cl.N[C@H]1C(O)O[C@H](CO)[C@@H](O)[C@@H]1O (stereo partly drawn) [Glucosamine hydrochloride]
- pH (1% in water) (pH of aqueous solution): 6.07
- pH of solution (pH of aqueous solution): 6.07
- stability in the baking process [1]: break down in the baking process
- half-life ([4]; IV): 2.5 h
- adverse events [4]: no adverse events reported
- blood sugar when administered with 7 units of insulin ([4]; human, in vivo, iv): showed a rise in blood sugar
- blood sugar when administered without insulin ([4]; human, in vivo, iv): Neither agent showed a rise in blood sugar

SMILES: O=C[C@H](O)[C@@H](O)[C@H](O)[C@H](O)C(=O)O [Glucuronic Acid]
- effect on IL-1β-induced NO production [5]: do not express this activity
- Inhibitory Activity on IL-1β induced NO Production [5]: Nil

SMILES: N[C@H]1C(O)O[C@H](CO)[C@@H](O)[C@@H]1O (stereo partly drawn) [Glucosamine]
- mean ratio of incorporation of glucosamine to N-acetylglucosamine (intestinal mucosa [6]; Crohn's): 0.039
- ratio of incorporation of glucosamine to N-acetylglucosamine, mean (intestinal mucosa [6]; normal subjects): 0.097
- mean ratio of incorporation of glucosamine to N-acetylglucosamine (intestinal mucosa [6]; ulcerative colitis): 0.031
- effect on IL-1β-induced NO production [5]: inhibit
- Inhibitory Activity on IL-1β induced NO Production [5]: Weak
- inhibiting the production of nitric oxide synthetase (Inducible NO Synthetase): not effective
- inhibiting the production of COX-2 (COX-2): not effective
- inhibiting the production of IL-6 (IL-6): not effective
- absolute bioavailability ([7]; IM administration): 93%
- absolute bioavailability ([7]; oral administration): 44%
- administered dose excreted by the kidneys ([7]; oral route): about 10%
- administered dose excreted via the feces ([7]; oral route): 11%
- total body insulin sensitivity ([8]; forearm glucosamine infusion, twenty human volunteers): did not affect
- baseline arteriovenous glucose differences ([8]; glucosamine infusion): not affected
- forearm blood flow ([8]; glucosamine infusion): did not alter
- forearm skeletal muscle glucose uptake ([8]; glucosamine infusion): did not affect

SMILES: CC(=O)N[C@@H]1C(O)O[C@H](CO)[C@@H](O)[C@@H]1O (stereo partly drawn) [N-Acetylmannosamine]
- effect on IL-1β-induced NO production [5]: do not express this activity
- Inhibitory Activity on IL-1β induced NO Production [5]: Nil

SMILES: CC(=O)N[C@H]1C(O)O[C@H](CO)[C@@H](O)[C@@H]1O (stereo partly drawn) [N-Acetylglucosamine, N-acetylglucosamine]
- times more N-acetylglucosamine incorporated into macromolecules than glucosamine (intestinal mucosa [9]): 10 times
- pH (1% in water) (pH of aqueous solution): 7.4
- pH of solution (pH of aqueous solution): 7.40
- stability in the baking process [1]: stable during the baking process
- ability to inhibit IL-1β-induced NO production relative to glucosamine ([5]; 10 mM concentration): 5 times
- effect on IL-1β-induced NO production [5]: inhibit
- Inhibitory Activity on IL-1β induced NO Production [5]: Strong
- Inducible NO Synthetase Expression, Protein (Inducible NO Synthetase; [12]): inhibits
- Inducible NO Synthetase Expression, mRNA (Inducible NO Synthetase; [12]): inhibits
- inhibiting the production of nitric oxide synthetase (Inducible NO Synthetase): inhibiting
- COX-2 Expression, Protein (COX-2; [12]): inhibits
- COX-2 Expression, mRNA (COX-2; [12]): inhibits
- inhibiting the production of COX-2 (COX-2): inhibiting
- COX-1 Expression, Protein (COX-1): No Inhibition
- IL-6 Production (IL-6; [12]): inhibits
- inhibiting the production of IL-6 (IL-6): inhibiting
- adverse side-effects of treatment ([10]; 3 to 6 grams daily in three divided doses): no adverse side-effects of treatment were noted in any patient
- histology in all cases biopsied ([10]; in vivo): evidence of histological improvement
- children with symptomatic Crohn's stricture requiring surgery ([10]; of 7, mean follow-up >2.5 years): 3
- children showing clear improvement ([10]; oral adjunct therapy, 3-6 g daily, 12 children): Eight
- children requiring resection ([10]; oral adjunct therapy, 12 children): four
- cases of remission ([10]; rectal administration as sole therapy, nine children): two
- cases of clear improvement [10, 13]: three
- cases of no effect [10, 13]: two
- half-life ([4]; IV): 3.67 h
- blood sugar when administered without insulin ([4]; IV, human): Neither agent showed a rise in blood sugar
- administered dose excreted in the urine ([4]; IV, in 24 hours): 54%
- adverse events [4]: no adverse events reported

SMILES: CC(=O)N[C@@H]1[C@@H](O)[C@@H](O)[C@@H](CO)O[C@@H]1O [N-Acetylgalactosmine]
- Inhibitory Activity on IL-1β induced NO Production [5]: Strong

SMILES: CC(C)Cc1ccc(C(C)C(=O)O)cc1 (stereo not drawn) [ibuprofen]
- patients dropped out because of adverse events / side effects (osteoarthritis (knee)): 10%
- symptoms of osteoarthritis (osteoarthritis (knee)): reduced symptoms
- patients improved (positive clinical response = 20% decrease TMJ pain with function) ([3]; 90 days): 61%
- patients discontinued due to inadequate pain control ([3]; 90 days): one
- patients discontinued due to stomach upset ([3]; 90 days): 3
- number of patients improved (positive clinical response) [3]: 11
